Results as given in PubChem BioAssay (NCI).
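96-well plates; 48 h exposure; 5 concentrations. Endpoints by linear interpolation between flanking doses. Not reached: highest tested concentration assigned. TGI: concentration producing complete growth inhibition.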 *1 amine or outer side, *2 acyl side, *3 side chain or, on linkers, in order; H or OH if unused. Where a SMILES comes first, the peptide text is derived from it. Bridges are numbered along the chain shown (N, C = ends). [ ]: non-standard residue; d: D form. X59 = COc1c(N[*:1])cccc1C(=O)O[C@H](C(=O)[C@H](C)C(=O)[*:2])C(C)C; X58 = CC(C)C[C@H](C(=O)[*:2])C(C)C(=O)C1CCCN1[*:1]; NMeY = CN[C@@H](Cc1ccc(O)cc1)C(=O)O; Lac = C[C@H](O)C(=O)O

Legend:
Assay in all cases: inhibition of tumour cell growth, NCI panel, 48 h
HCT-15 colon = test system: HCT-15 colon
NCI/ADR-RES ovarian = test system: NCI/ADR-RES ovarian
SN12C renal = test system: SN12C renal
MALME-3M melanoma = test system: MALME-3M melanoma
OVCAR-4 ovarian = test system: OVCAR-4 ovarian
BT-549 breast = test system: BT-549 breast
COLO 205 colon = test system: COLO 205 colon
IGROV1 ovarian = test system: IGROV1 ovarian
K-562 leukemia = test system: K-562 leukemia
T-47D breast = test system: T-47D breast
SNB-75 CNS = test system: SNB-75 CNS
M14 melanoma = test system: M14 melanoma
RPMI-8226 leukemia = test system: RPMI-8226 leukemia
SK-MEL-2 melanoma = test system: SK-MEL-2 melanoma

Row | SMILES | TGI (HCT-15 colon) [µM] | TGI (NCI/ADR-RES ovarian) [µM] | TGI (SN12C renal) [µM] | TGI (MALME-3M melanoma) [µM] | TGI (OVCAR-4 ovarian) [µM] | TGI (BT-549 breast) [µM] | TGI (COLO 205 colon) [µM] | TGI (IGROV1 ovarian) [µM] | TGI (K-562 leukemia) [µM] | TGI (T-47D breast) [µM] | TGI (SNB-75 CNS) [µM] | TGI (M14 melanoma) [µM] | TGI (RPMI-8226 leukemia) [µM] | TGI (SK-MEL-2 melanoma) [µM]
1 | Cn1c(-c2cccs2)cc(-c2ccsc2)c1-c1cccs1 | > 100 | > 100 | > 100 | > 100 | > 100 | > 100 | 46.5 | > 100 | > 100 | 73.2 | > 100 | > 100 | – | –
2 | CC1(C)CC2C(/C1=N/O)C1(C)CCCC2(C)C1O (configuration not stated) | > 100 | > 100 | > 100 | > 100 | > 100 | > 100 | > 100 | > 100 | > 100 | > 100 | > 100 | > 100 | > 100 | > 100
3 | CN(C)CCN=C1Nc2ccccc2C(=O)N2CSCC12 (configuration not stated) | > 100 | > 100 | > 100 | > 100 | > 100 | > 100 | > 100 | > 100 | > 100 | > 100 | > 100 | > 100 | > 100 | > 100
4 | COc1ccc(C[C@H]2C(=O)O[C@H](C)[C@H](NC(=O)[C@@H](CC(C)C)C(C)C(=O)C3CCCN3C(=O)[C@H](C)O)C(=O)Nc3cccc(c3OC)C(=O)O[C@@H](C(C)C)C(=O)[C@H](C)C(=O)N[C@@H](CC(C)C)C(=O)N3CCC[C@H]3C(=O)N2C)cc1 (some centres not stated) (H-[Lac][X58]T[X59]LP[NMeY](Me); ester 3-C) | > 12.5 | > 12.5 | > 12.5 | > 12.5 | > 12.5 | > 12.5 | > 12.5 | > 12.5 | > 12.5 | > 12.5 | > 12.5 | > 12.5 | 10.8 | > 12.5
5 | COc1cc(/C=C2\C(=O)N(c3ccc(NC(C)=O)cc3)C(c3ccccc3)S2(=O)=O)cc(OC)c1OC (configuration not stated) | > 100 | > 100 | > 100 | > 100 | > 100 | > 100 | > 100 | > 100 | > 100 | > 100 | > 100 | > 100 | > 100 | > 100
6 | CCOC(=O)CON=c1c2ccccc2ccc2ccccc12 | > 100 | > 100 | > 100 | > 100 | > 100 | > 100 | > 100 | > 100 | > 100 | > 100 | > 100 | > 100 | > 100 | > 100
7 | Cc1ncc([N+](=O)[O-])n1CCNC(=O)Cn1ccnc1[N+](=O)[O-] | > 100 | > 100 | > 100 | > 100 | – | > 100 | > 100 | > 100 | > 100 | > 100 | > 100 | > 100 | – | > 100
8 | N#Cc1nc(-c2ccc(-c3nc(C#N)c(N)o3)cc2)oc1N | > 10 | > 10 | > 10 | > 10 | > 10 | > 10 | > 10 | > 10 | > 10 | > 10 | > 10 | > 10 | > 10 | –
9 | CCOC(=O)C(C)c1nc2cc(C(F)(F)F)ccc2[nH]c1=O (configuration not stated) | > 100 | > 100 | > 100 | > 100 | > 100 | > 100 | > 100 | – | > 100 | 67.7 | > 100 | > 100 | > 100 | > 100
10 | COc1cc(/C=C2\CC(C)C/C(=C\c3ccc(O)c(OC)c3)C2=O)ccc1O (configuration not stated) | 4.93 | > 62.2 | 8.35 | 8.75 | 8.96 | 12.3 | 24.7 | 5.88 | > 73.5 | 4.5 | 15 | 8.22 | > 100 | 17.8
11 | Brc1ccc(N=Nc2ccc3ccccc3n2)cc1 | > 100 | > 100 | > 100 | > 100 | – | 60.5 | > 100 | 65.5 | – | > 100 | 40.6 | > 100 | > 100 | > 100
12 | COc1ccc(OC2OC(CO)C(O)C(O)C2O)cc1 (configuration not stated) | > 100 | > 100 | > 100 | > 100 | – | > 100 | > 100 | > 100 | > 100 | > 100 | > 100 | > 100 | > 100 | > 100
13 | CCOC(=O)CNC(=O)CNC(=O)CNC(=O)CNNc1c(OCc2ccccc2)c(=O)c1=O | > 100 | > 100 | > 100 | > 100 | > 100 | > 100 | > 100 | > 100 | > 100 | > 100 | > 100 | > 100 | > 100 | > 100
14 | COc1ccc2cc(/C=N\NC(=O)Nc3ccc([N+](=O)[O-])cc3)ccc2c1 | 25 | 20.1 | 18 | 22.4 | 15.9 | 18.6 | 17.9 | 23.2 | > 31.6 | 19.5 | 23.1 | > 71.4 | 29.1 | 20.5
15 | COC(=O)C1=C(C(=O)OC)C(OO)(c2ccccc2)OC1=O (configuration not stated) | > 100 | > 100 | > 100 | > 100 | > 100 | > 100 | > 100 | > 100 | > 100 | > 100 | > 100 | > 100 | – | > 100
16 | CC(C)N(C(=O)C12C3(C(=O)C(C)(C)C)C4C5(C#N)C3C1(C(=O)C(C)(C)C)C5C42C(=O)C(C)(C)C)C(C)C (configuration not stated) | > 100 | > 100 | > 100 | – | > 100 | > 100 | > 100 | > 100 | > 100 | > 100 | 91 | > 100 | – | > 100
